From patent publication US11433053B2, “LSD1 inhibitor and preparation method and application thereof” (CSPC ZHONGQI PHARMACEUTICAL TECHNOLOGY (SHIJIAZHUANG) CO., …, priority 2017, dated 2022) come the findings set out here.

Where only a bound is given, the exact number is not on record here.

For the assay, the target named is human LSD1 (Homo sapiens (Human), UniProt O60341). The experiment in a line: Evaluation of enzyme activity: LSD1 fluorescence coupling enzyme assay (HRP/Amplex Red). To be noted: human LSD1, histone H3(1-21)K4me2 peptide 10 μM, 30 min pre-incubation. The format is biochemical. The method, then: The purpose of this test is to test the in vitro inhibitory activities of the compounds against LSD1. The enzyme used in this experiment was human LSD1, and the standard substrate was histone H3(1-21)K4me2 peptide (10 μM). HCI-2509 (SP2509) was used as reference compound, and the fluorescence coupling enzyme assay was employed. The production of FAD-dependent H2O2 as a result of demethylase activity of LSD1 was measured by coupling with HRP and Amplex Red. Compounds as well as control compound HCl-2509 were tested in 10-dose IC50 mode with a 3-fold serial dilution in duplicate starting at 10 μm. All compounds were pre-incubated 30 mins with enzyme before added substrate to start reaction. Fluorescence measurement: Ex/Em=535/590 by EnVision.
The test compound's inhibitory activities against LSD11 was classified as: + for IC50≤50 nM; ++ for IC50>50 nM and ≤100 nM; +++ for IC50>100 nM and ≤500 nM, and the results are shown in Table 1.
In general, IC50 refers to the midpoint of a concentration-inhibition curve. A low value points to greater potency. For `O=C(O)c1ccc(CN2CC(c3nc(C4(CN[C@H]5C[C@@H]5c5ccccc5)CC4)no3)C2)cc1` [Example 205], the IC50 lay within 0.1 to 0.5 µM.
On to `CN1CCC(c2nc(C3(CN[C@H]4C[C@@H]4c4ccccc4)CC3)no2)CC1=O` (stereo partly drawn) [Example 218], for which the IC50 was 0.1 to 0.5 µM.
In turn, `CN(C)[C@H]1CC[C@H](c2nc(C3(CN[C@H]4C[C@@H]4c4ccccc4)CC3)no2)CC1` [Example 108] gave an IC50 of 0.1 to 0.5 µM.
In the case of `CS(=O)(=O)n1cc2c(n1)CN(CC1(CN[C@H]3C[C@@H]3c3ccccc3)CC1)C2` [Example 106], the IC50 is 0.1 to 0.5 µM.
For the molecule `COC(=O)[C@H]1CC[C@H](c2nc(C3(CN[C@H]4C[C@@H]4c4ccccc4)CC3)no2)CC1` [Example 172], the IC50 was ≤ 0.05 µM.
`O=C(O)C1CC2(C1)CC(c1nc(C3(CN[C@H]4CC4c4ccccc4)CC3)no1)C2` (stereo partly drawn) [Example 173] yielded an IC50 of 0.1 to 0.5 µM.
Regarding `CC(C)Oc1ccc(-c2nc(C3(CN[C@H]4CC4c4ccccc4)CCC3)no2)cc1C#N` (stereo partly drawn) [Example 189], the IC50 was ≤ 0.05 µM.
Consider `Clc1ccc2nc(C3(CN[C@H]4CC4c4ccccc4)CC3)oc2c1` (stereo partly drawn) [Example 46], for which the IC50 was ≤ 0.05 µM.
`COc1ccccc1-c1nc(C2(CN[C@H]3CC3c3ccccc3)CCC2)no1` (stereo partly drawn) [Example 90]: the IC50 is ≤ 0.05 µM.
Turning to `Clc1ccc2oc(C3(CN[C@H]4C[C@@H]4c4ccccc4)CC3)nc2c1` [Example 47], the IC50 lay in the range of 0.05 to 0.1 µM.
With `CC1(N)CCC(c2nc(C3(CN[C@@H]4C[C@H]4c4ccccc4)CC3)no2)CC1` (stereo partly drawn) [Example 245], the IC50 was ≤ 0.05 µM.
In turn, `O=C(O)c1ccc2c(c1)CN(CC1(CN[C@H]3C[C@@H]3c3ccccc3)CC1)C2` [Example 99] gave an IC50 of 0.1 to 0.5 µM.
As to `Fc1ccc(-c2nc(C3(CN[C@H]4CC4c4ccccc4)CC3)no2)cc1` (stereo partly drawn) [Example 63], the IC50 was ≤ 0.05 µM.
`c1ccc([C@H]2C[C@@H]2NCC2(c3noc(-c4cncnc4)n3)CCC2)cc1` [Example 128] displayed an IC50 of 0.05 to 0.1 µM.
As to `CN(C)CC1(CN[C@H]2C[C@@H]2c2ccccc2)CC1` [Example 5], the IC50 fell in the range of 0.05 to 0.1 µM.
To `c1ccc([C@H]2C[C@@H]2NCC2(c3noc([C@@H]4CCCNC4)n3)CC2)cc1` [Example 139] belongs 0.05 to 0.1 µM; to `c1ccc(C2C[C@@H]2NCC2(c3noc(-c4cccnc4)n3)CCC2)cc1` (stereo partly drawn) [Example 130], ≤ 0.05 µM; to `O=C(O)c1ccc(NCC2(CN[C@H]3C[C@@H]3c3ccccc3)CCC2)nc1` [Example 84], 0.1 to 0.5 µM.
As to `O=C(O)c1ccc(N2CCC(c3nc(C4(CN[C@H]5CC5c5ccccc5)CC4)no3)CC2)cn1` (stereo partly drawn) [Example 104], the IC50 is ≤ 0.05 µM.
To `Cn1cc2c(n1)CN(CC1(CN[C@H]3CC3c3ccccc3)CC1)C2` (stereo partly drawn) [Example 109] belongs ≤ 0.05 µM.
To `CC(C)(C)n1nnc(C2(CN[C@H]3C[C@@H]3c3ccccc3)CC2)n1` [Example 3] belongs 0.05 to 0.1 µM.
With `Fc1ccccc1-c1nc(C2(CN[C@H]3CC3c3ccccc3)CC2)no1` (stereo partly drawn) [Example 185], the IC50 is ≤ 0.05 µM.
With `FC(F)(F)c1ccc(CNCC2(CN[C@H]3C[C@@H]3c3ccccc3)CC2)cn1` [Example 15], the IC50 lay within 0.05 to 0.1 µM.
To `c1ccc([C@H]2C[C@@H]2NCC2(CNCc3cnc4n3CCC4)CC2)cc1` [Example 17] belongs 0.05 to 0.1 µM; to `NC[C@H]1CC[C@H](c2nc(C3(CN[C@@H]4C[C@H]4c4ccccc4)CC3)no2)CC1` [Example 239], ≤ 0.05 µM; to `c1ccc(C2C[C@@H]2NCC2(CNCc3ccc[nH]3)CC2)cc1` (stereo partly drawn) [Example 11], ≤ 0.05 µM.
With `O=C(O)c1ccccc1-c1nc(C2(CN[C@H]3C[C@@H]3c3ccccc3)CCC2)no1` [Example 134], the IC50 lay in the range of 0.1 to 0.5 µM.
With `c1ccc(C2C[C@@H]2NCC2(c3noc(-c4ccc(-n5cnnc5)cc4)n3)CCC2)cc1` (stereo partly drawn) [Example 136], the IC50 is ≤ 0.05 µM.
To `Fc1cc(F)c(-c2nc(C3(CN[C@H]4CC4c4ccccc4)CCC3)no2)c(F)c1` (stereo partly drawn) [Example 191] belongs ≤ 0.05 µM.
`O=C(O)c1ccc(CN2CCC(c3nc(C4(CN[C@H]5C[C@@H]5c5ccccc5)CC4)no3)CC2)cc1` [Example 170] had an IC50 of 0.1 to 0.5 µM.
To `c1ccc([C@@H]2C[C@H]2NCC2(c3noc(C4CCNCC4)n3)CC2)cc1` [Example 231] belongs 0.05 to 0.1 µM.
Consider `O=C(O)[C@H]1C[C@@H](c2nc(C3(CN[C@@H]4C[C@H]4c4ccccc4)CC3)no2)C1` [Example 150], for which the IC50 was ≤ 0.05 µM.
As to `N#Cc1ccccc1-c1nc(C2(CN[C@H]3CC3c3ccccc3)CCC2)no1` (stereo partly drawn) [Example 91], the IC50 is ≤ 0.05 µM.
As to `O=C(O)c1ccc(CN2CCC(c3nc(C4(CN[C@@H]5C[C@H]5c5ccccc5)CC4)no3)CC2)cc1` [Example 169], the IC50 is 0.05 to 0.1 µM.
Regarding `c1ccc([C@H]2C[C@@H]2NCC2(c3cc([C@H]4CCCNC4)on3)CCC2)cc1` [Example 138], the IC50 was in the range of 0.05 to 0.1 µM.
Molecule `CC1CCN(CC2(CN[C@H]3C[C@@H]3c3ccccc3)CC2)C1` (stereo partly drawn) [Example 98] had an IC50 of 0.05 to 0.1 µM.
In the case of `c1ccc([C@H]2C[C@@H]2NCC2(CNCc3cnc[nH]3)CC2)cc1` [Example 12], the IC50 fell in the range of 0.05 to 0.1 µM.
Turning to `N#Cc1ccc(C(=O)NC2(CN[C@H]3CC3c3ccccc3)CCC2)cc1` (stereo partly drawn) [Example 97], the IC50 is ≤ 0.05 µM.
With `N#Cc1cc(F)cc(-c2nc(C3(CN[C@H]4CC4c4ccccc4)CCC3)no2)c1` (stereo partly drawn) [Example 190], the IC50 was ≤ 0.05 µM.
Regarding `Fc1ccccc1CNCC1(CN[C@H]2CC2c2ccccc2)CC1` (stereo partly drawn) [Example 10], the IC50 is ≤ 0.05 µM.
In the case of `CC(C)[C@H](N)c1nc(C2(CN[C@@H]3C[C@H]3c3ccccc3)CC2)no1` [Example 154], the IC50 is 0.1 to 0.5 µM.
As for `c1ccc(C2C[C@@H]2NCC2(CNCC3CCNC3)CC2)cc1` (stereo partly drawn) [Example 13], the IC50 is ≤ 0.05 µM.
As for `c1ccc(C2C[C@@H]2NCC2(c3ccccc3)CCC2)cc1` (stereo partly drawn) [Example 122], the IC50 was ≤ 0.05 µM.
`FC1CC(CN[C@H]2CC2c2ccccc2)(c2cccnc2)C1` (stereo partly drawn) [Example 85]: the IC50 was ≤ 0.05 µM.
Consider `Cn1ncc2c1CN(CC1(CN[C@H]3CC3c3ccccc3)CC1)C2` (stereo partly drawn) [Example 110], for which the IC50 is ≤ 0.05 µM.
To `N[C@@H](Cc1nc(C2(CN[C@@H]3C[C@H]3c3ccccc3)CC2)no1)C(=O)O` [Example 152] belongs 0.1 to 0.5 µM.
Consider `c1ccc(C2C[C@@H]2NCC2(c3ccccc3)CCCC2)cc1` (stereo partly drawn) [Example 121], for which the IC50 is ≤ 0.05 µM.
To `c1ccc([C@H]2C[C@@H]2NCC2(CNCc3nccs3)CC2)cc1` [Example 16] belongs 0.1 to 0.5 µM; to `O=C(O)c1ccc(C(=O)N2CCC(c3nc(C4(CN[C@H]5C[C@@H]5c5ccccc5)CC4)no3)CC2)cc1` [Example 107], 0.1 to 0.5 µM; to `O=C(O)[C@@H]1CCN1CC1(CN[C@@H]2C[C@H]2c2ccccc2)CC1` [Example 228], 0.1 to 0.5 µM.
In the case of `Fc1ccc(-c2nc(C3(CN[C@H]4CC4c4ccccc4)CCC3)no2)c(F)c1` (stereo partly drawn) [Example 187], the IC50 was ≤ 0.05 µM.
Turning to `Clc1ccc(C2(CN[C@H]3CC3c3ccccc3)CCC2)cc1` (stereo partly drawn) [Example 123], the IC50 was ≤ 0.05 µM.
As for `CC1(C)CCN(CC2(CN[C@H]3C[C@@H]3c3ccccc3)CC2)C1` [Example 202], the IC50 is 0.05 to 0.1 µM.
To `O=C(O)c1ccc(CN2CCC(Cc3nc(C4(CN[C@H]5CC5c5ccccc5)CC4)no3)CC2)cc1` (stereo partly drawn) [Example 164] belongs ≤ 0.05 µM.
